From patent US9402821B2, “Methods and pharmaceutical compositions for treatment of cystic fibrosis” (INSERM (Institut National de la sante et de la Recherche …, priority 2012, dated 2016)

Tests used:
Format in all cases: cell-based
IL-8 promoter = IL-8 promoter luciferase reporter / IL-8 mRNA qPCR, TNFα-stimulated cells; settings: TNFα 10 ng/ml; bronchial epithelial cells and heterologous HeLa models (FIGS. 2A, B)
Method: Cells were transiently transfected by the short IL-8 promoter-firefly luciferase reporter and renilla luciferase reference and inflammation was induced by 10 ng/ml TNFα for 1 h. A. HeLa cells were pre-treated with diluent or different doses of sulindac 1 h before inflammation induction and 4 h after. IL-8 promoter activity in cells treated with sulindac+TNFα was expressed in percent of diluent+TNFα. B. After treatment, HeLa Ctr cells were lysed with TRIzol (Invitrogen). Total RNA was extracted, and 1 μg of total RNA was reverse transcribed with a reverse transcription kit. IL-8 mRNA expression was quantified by real-time quantitative PCR (qPCR). The comparative threshold cycle (CT) method was used for relative quantification of PCR products after IL-8 was normalised to TBP (ΔCt=CtIL-8−CtTBP). […] C After treatment, IL-8 in supernatant was measured by ELISA. The IL-8 stimulation of cells treated with test drug +TNFα were expressed as fold compared to drug −TNFα. […]
Cells were lysed with the Passive Lysis Buffer (Promega), and luciferase activity in the cellular extracts was determined by the Dual Luciferase Assay System (Promega) using a luminometer (Tristar; Berthold). The results were normalized to those obtained with the Renilla luciferase reference plasmid used to control the transfection efficiency, and the values were expressed as luminescence intensity (Luciferase/Renilla). […]

[1] = system: PPAR transcriptional activity; assay: PPAR firefly luciferase reporter assay (3 PPRE motifs) in HeLa cells; settings: sulindac 100 μM, 24 h
Method: HeLa control cells were transiently transfected by PPAR firefly luciferase reporter (3 PPRE motifs) and renilla luciferase reference. Cells were treated with diluent (0.5%), ibuprofen (500 μM) or sulindac (100 μM) for 24 h. The PPAR transcriptional activity in cells treated with ibuprofen and sulindac was expressed in percent of diluents. Results of three independent experiments, means±SEM. Unilateral paired t test: ** p<0.01.
To assay the transcriptional activity of AP-1, pAP1Luc, a luciferase reporter plasmid containing five sequential AP-1 binding sites upstream of a minimum promoter element, was used. Transcriptional activity of PPAR was evaluated with reporter constructs with three sequential PPRE consensus sequences, binding PPAR factors. Transient transfection were realized as described before. To normalize transfection efficiency, a renilla luciferase reporter construct (pRL-TK, Promega) was co-transfected with each of the firefly luciferase constructs. To induced AP-1 activity, cells were exposed to TNFα (10 ng/mL) for 1 hour. Cells were pre- and treated with sulindac, ibuprofen or vehicule control one hour before and four hours after this induction. For PPAR activity, cells were treated with pharmacological drugs for 24 hours.
Luciferase assay was realized as described before.

CFTR = CFTR (Homo sapiens, UniProt P13569); assay: CFTR maturation by Western blot of membrane extracts; design: expressed in transfected cells; settings: for Ratio CFTR C/C + B (%): HeLa CFTR WT, Ctr. 65.1
Method: B. Chloride activity in HeLa Wt cells was measured by MQAE assay, after 3 h of treatment by NSAID (500 μM) or diluent. CFTR activity was expressed in rate of UFA/sec, calculated by difference between ((Ft−F0)/t) with CFTR induction and ((Ft−F0)/t) without CFTR induction. […] C. Primary culture of human nasal epithelial cell (HNEC) grown on Snapwell filters (air-liquid interface) were exposed basolaterally to sulindac (500 μM) or vehicle for 2 h and immediately mounted into a voltage-clamp system to bioelectric measurements. Short circuit current was measured with addition of amiloride to evaluated amiloride sensitive transport or with forskolin and IBMX for induced cAMP-dependent Cl secretion.
To study the CFTR protein present at the cell membrane, a protocol of purification by differential centrifugations was used. CFTR wt and delta F508 HeLa cells (2×10^5 cells/cm^2) were lysed with hypotonic lysis buffer (10 mM de KCl, 1 mM de MgCl2, 10 mM Hepes pH 7, 4 and protease inhibitor). Mechanic lysis of cells was realized with minimum 10 strokes of a 26G syringe. Samples were centrifuged 10 min at 3000 g to eliminate cellular fragments and nuclear fraction in the pellet. Then supernatant was centrifuged 45 min at 50 000 g. The pellets with cellular membrane were resolubilized in RIPA buffer.
Aliquots of membrane cell extracts (30 μg protein) were separated by 7% SDS-PAGE and transferred on PVDF membrane. The western blots were probed with mouse monoclonal antibodies specific for CFTR (MM13-4, Millipore) 2 h at room temperature.

CFTR, sequence (P13569 whole entry): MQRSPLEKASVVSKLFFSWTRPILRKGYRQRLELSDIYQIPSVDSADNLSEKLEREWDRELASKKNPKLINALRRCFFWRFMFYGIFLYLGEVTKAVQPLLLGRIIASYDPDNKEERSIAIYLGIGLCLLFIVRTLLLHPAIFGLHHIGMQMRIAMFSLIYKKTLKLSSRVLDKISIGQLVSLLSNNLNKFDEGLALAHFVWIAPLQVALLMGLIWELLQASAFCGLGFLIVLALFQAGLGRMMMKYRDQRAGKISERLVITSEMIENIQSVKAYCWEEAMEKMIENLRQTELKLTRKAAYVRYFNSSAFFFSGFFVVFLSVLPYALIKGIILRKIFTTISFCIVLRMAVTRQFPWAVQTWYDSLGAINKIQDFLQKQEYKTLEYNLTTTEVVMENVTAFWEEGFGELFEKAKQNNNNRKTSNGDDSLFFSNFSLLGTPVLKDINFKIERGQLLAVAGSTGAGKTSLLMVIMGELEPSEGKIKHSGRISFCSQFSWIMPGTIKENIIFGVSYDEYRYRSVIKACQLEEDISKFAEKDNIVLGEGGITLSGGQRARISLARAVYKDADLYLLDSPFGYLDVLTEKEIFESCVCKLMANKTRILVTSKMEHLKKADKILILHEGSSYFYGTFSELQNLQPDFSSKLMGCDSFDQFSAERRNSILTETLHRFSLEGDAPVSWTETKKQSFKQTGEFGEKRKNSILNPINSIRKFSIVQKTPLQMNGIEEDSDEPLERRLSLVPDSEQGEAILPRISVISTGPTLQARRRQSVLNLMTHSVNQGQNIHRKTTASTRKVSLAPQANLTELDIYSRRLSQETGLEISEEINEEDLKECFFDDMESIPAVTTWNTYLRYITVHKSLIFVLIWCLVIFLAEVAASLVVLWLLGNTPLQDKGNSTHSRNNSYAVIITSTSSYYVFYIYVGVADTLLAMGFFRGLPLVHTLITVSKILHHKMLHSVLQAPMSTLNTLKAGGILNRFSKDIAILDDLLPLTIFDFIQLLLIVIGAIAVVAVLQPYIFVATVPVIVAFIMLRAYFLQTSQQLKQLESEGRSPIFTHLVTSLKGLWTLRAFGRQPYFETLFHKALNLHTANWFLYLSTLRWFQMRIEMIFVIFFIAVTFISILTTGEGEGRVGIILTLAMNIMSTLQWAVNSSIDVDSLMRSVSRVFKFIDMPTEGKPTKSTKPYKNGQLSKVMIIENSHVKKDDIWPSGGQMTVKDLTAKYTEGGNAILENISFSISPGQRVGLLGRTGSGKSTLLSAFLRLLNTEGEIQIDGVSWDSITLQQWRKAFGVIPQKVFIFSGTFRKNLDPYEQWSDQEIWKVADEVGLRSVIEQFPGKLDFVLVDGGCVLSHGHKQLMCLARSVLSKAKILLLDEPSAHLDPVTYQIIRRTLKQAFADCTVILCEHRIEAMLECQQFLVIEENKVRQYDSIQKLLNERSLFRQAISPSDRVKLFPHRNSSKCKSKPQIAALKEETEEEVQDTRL

- Ratio CFTR C/C + B (%) (CFTR; 250 μM): 77.7%
- Ratio CFTR C/C + B (%) (CFTR; 500 μM): 81.5%
SMILES: CC1=C(CC(=O)O)c2cc(F)ccc2/C1=C\c1ccc([S+](C)[O-])cc1 (centres unmarked) [sulindac, (Z)-5-fluoro-2-methyl-1-[p-(methylsulfinyl)benzylidene]-indene-3-acetic acid]
- IL-8 transcription (IL-8 promoter): decreased IL-8 transcription
- PPAR transcriptional activity [1]: increase in the transcriptional activity of PPAR
- mature form of CFTR (Western blot) (CFTR; WT-CFTR HeLa cells, 500 μM): significant increase of mature form of CFTR
